Test: Lipophilicity, Log D by scaled-down shake-flask method (octanol/PBS)
Type: physicochemical
Conditions: pH 7.4, read-out: Log D7.4
Experimental: Lipophilicity is a compound’s tendency to partition into a non-polar lipid matrix versus an aqueous matrix. It is an important property of a drug which has a significant influence on the drug ADME/tox properties as well as its biological activity. […].
Stock solutions of NP046 and controls in DMSO (10 mM) were prepared and an aliquot of each phase (octanol/PBS) was analysed by an HPLC-Diode array detector (DAD) method. Chromatographic separation was achieved on a Phenomenex® Kinetex C18 (50 × 2.1 mm i.d. 2.6 μm) column with a gradient elution, using mobile phase (A) 5 mM ammonium format-acetonitrile (95:5, v/v) and (B) 5 mM ammonium format-acetonitrile (5:95, v/v). The Log D values were calculated using the analyte peak areas obtained from each phase (Octanol/PBS) according to the following equation [12]: [drawing 2]

Question: For `Oc1cc(CCCc2ccc(F)cc2)ccc1CN1CCCCC1` [NP046, 5-(3-(4-fluorophenyl)propyl)-2-(piperidin-1-ylmethyl)phenol], which logD is on record?
Answer: 2.6

Reference: publication PMC4326489, “Efficacy and pharmacokinetic evaluation of a novel anti-malarial compound (NP046) in a mouse model” (Malaria Journal, 2015)
